In patent US10292940B2, “Hyaluronic acid-based amphiphilic polymer, preparation method and application thereof” (BrightGene Bio-Medical Technology Co., Ltd., priority 2015, dated 2019):
Where two headings read alike, the source gives them in different places.

Experiments:
MCF-7/ADR tumor [1] = test: Ex vivo imaging of organs of tumor-bearing nude mice; type: in vivo; conditions: DOX about 15 mg/kg, 10 h
Method: After 10 h, the heart, liver, spleen, lung, kidney and tumor block were collected, washed and fixed on a black plastic plate, which was then placed in a Maestro in vivo imaging system, and the intensity of DOX distribution in vivo was measured at an emission wavelength of 523 nm.

MCF-7/ADR tumor [2] = test: Bio-distribution in organs of tumor-bearing nude mice; type: in vivo; conditions: DOX about 15 mg/kg, tail vein, after 10 h
MCF-7/ADR tumor [3] = test: Anti-tumor effect in nude mice bearing drug-resistant breast-cancer tumor
Excerpt: (§1) Tumor-bearing nude mice with a tumor size of 50 mm^3 were randomly divided into three groups (six in each group), and this day is set to day 0. […] Effects of drug-loaded micelles on tumor growth in nude mice were regularly measured with a caliper. Changes in body weight of nude mice were regularly weighed with a balance. The tumor size was obtained based on a formula V=0.5×L×W×H […] of the longest points of the tumor; W is the length of the shortest points of the tumor; H is the height of the tumor). After 24 days, one mouse was randomly taken from each group and was killed by neck and spine dislocation, and the heart, liver and tumor of each mouse were removed and fixed with 4% formaldehyde, sliced and stained with hematoxylin and eosin (H & E) and subjected to histological analysis. The remaining nude mice were still observed. Mice were considered to be died when the nude mice died during treatment, or the tumor volume exceeded 1000 mm^3. Relative tumor volume (%)=tumor volume/tumor volume on day 0×100%. Relative weight change (%)=body weight of nude mice/body weight of nude mice on day 0×100%.

[4] = tested on: LP1 tumor (multiple myeloma)
Method: as §1, with “[…]” for “50 mm^3”, “V=0.5×L×W×H (L” for “V=0.5×L×W×H”, “[…]” for “nude mice/body”

[5] = Blood circulation in mice after tail vein injection; conditions: DOX 15 mg/kg, up to 24 h
Method: Six about 5-8 weeks old nude mice weighing 18-22 g were randomly divided into two groups, and each group was administered with DOX-loaded HA-Lys-LA crosslinked nanoparticles (MnHA=35 kDa, DS=10%, DLC=12%) or free DOX (DOX dosage being 15 mg/kg) via tail vein injection. 10 μL of blood was withdrawn from the tail vein each time at different time points after injection for 2 minutes, 15 minutes, 30 minutes, 1 h, 2 h, 4 h, 6 h, 8 h, 12 h, 24 h. After the blood was withdrawn, the blood sample was weighed and dissolved in 100 μL of 1% Triton solution, and then 1 mL of 0.75 mol/L hydrochloric acid isopropanol solution was added thereto. The mixture was allowed to stand overnight in dark at −20° C. After centrifugation, the supernatant was subjected to fluorescence test. % ID/g=(FL sample×(V Triton+V hydrochloric acid))/(M blood×FL standard×V standard×standard dilution factor)×100%
Six about 5-8 weeks old nude mice weighing 18-22 g were randomly divided into two groups, and each group was administered with DOX-loaded HA-Lys-LA crosslinked nanoparticles (MnHA=35 kDa, DS=40%, DLC=20%) or free DOX (DOX dosage being 15 mg/kg) via tail vein injection. […] After centrifugation, the supernatant was subjected to fluorescence test. % ID/g=(FL sample×(V Triton+V hydrochloric acid))/(M blood×FL standard×V standard×standard dilution factor)×100% […]

In the case of `COc1cccc2c1C(=O)c1c(O)c3c(c(O)c1C2=O)C[C@@](O)(C(=O)CO)C[C@@H]3O[C@H]1C[C@H](N)[C@H](O)[C@H](C)O1` [free DOX, doxorubicin], the “DOX distribution in tumor and organs (ex vivo fluorescence)” value (MCF-7/ADR tumor [1]) is reported as “almost did not concentrate at the tumor site”, the “enrichment of DOX at the tumor site” value (MCF-7/ADR tumor [2]) is reported as 0.63 % ID/g and the “reduction of body weight of nude mice” value (MCF-7/ADR tumor [3]; DOX about 7.5 mg/kg) is reported as 28%. The side effects (MCF-7/ADR tumor [3]; DOX about 7.5 mg/kg) was “large side effects”, the “time within which all mice died” value (MCF-7/ADR tumor [3]; DOX about 7.5 mg/kg) was no more than 28 days and the tumor volume growth (MCF-7/ADR tumor [3]; DOX about 7.5 mg/kg, tail vein) was “could not inhibit tumor growth”. For the same compound, the “H&E histology of heart and liver” value (MCF-7/ADR tumor [3]; after 24 days) was “liver corresponding to the free DOX group was greatly damaged, and myocardial cell atrophied”, the “H&E histology of tumor tissue” value (MCF-7/ADR tumor [3]; after 24 days) was “grew vigorously” and the “reduction of body weight of nude mice” value ([4]; DOX about 7.5 mg/kg) was “about 34%”. The “side effects / tolerance” value ([4]; DOX about 7.5 mg/kg) was “large side effects”, the “time within which all mice died” value ([4]; DOX about 7.5 mg/kg) was no more than 15 days and the “tumor volume growth / therapeutic effect” value ([4]; DOX about 7.5 mg/kg, tail vein) was “could not inhibit tumor growth”. For the same compound, the “side effects / tolerance” value ([4]; DOX about 7.5 mg/kg, listed as free drug) was “not tolerated”, the “H&E histology of heart and liver” value ([4]; after 24 days) was “liver corresponding to the free DOX group was greatly damaged, and myocardial cell atrophied” and the “H&E histology of tumor tissue” value ([4]; after 24 days) was “grew vigorously”. The “blood circulation (DOX in mice blood)” value [5] was “almost not detected in mice blood after 2 h”.
